Data from ChEMBL document CHEMBL4800727 (2021).

Key:
[1] = target: D(2) dopamine receptor (Homo sapiens) (UniProt P14416); details: Compound concentration 10.0 uM
[2] = target: 5-hydroxytryptamine receptor 1E (Homo sapiens) (UniProt P28566); details: Compound concentration 10.0 uM
[3] = target: Mitogen-activated protein kinase kinase kinase kinase 2 (Homo sapiens) (UniProt Q12851); test: mitogen-activated protein kinase kinase kinase kinase 2 Millipore kinase panel; details: Compound concentration 10.0 uM
[4] = target: Muscarinic acetylcholine receptor M3 (Homo sapiens) (UniProt P20309); test: hM3 Cerep panel; details: Compound concentration 10.0 uM
[5] = target: Serine/threonine-protein kinase pim-3 (Homo sapiens) (UniProt Q86V86); test: pim-3 oncogene Millipore kinase panel; details: Compound concentration 10.0 uM
[6] = target: Serine/threonine-protein kinase TAO3 (Homo sapiens) (UniProt Q9H2K8); test: TAO kinase 3 Millipore kinase panel; details: Compound concentration 10.0 uM
[7] = target: Kappa-type opioid receptor (Rattus norvegicus) (UniProt P34975); test: rOP2 Cerep panel; details: Compound concentration 10.0 uM
Chain of Kappa-type opioid receptor (Rattus norvegicus) (P34975 whole entry): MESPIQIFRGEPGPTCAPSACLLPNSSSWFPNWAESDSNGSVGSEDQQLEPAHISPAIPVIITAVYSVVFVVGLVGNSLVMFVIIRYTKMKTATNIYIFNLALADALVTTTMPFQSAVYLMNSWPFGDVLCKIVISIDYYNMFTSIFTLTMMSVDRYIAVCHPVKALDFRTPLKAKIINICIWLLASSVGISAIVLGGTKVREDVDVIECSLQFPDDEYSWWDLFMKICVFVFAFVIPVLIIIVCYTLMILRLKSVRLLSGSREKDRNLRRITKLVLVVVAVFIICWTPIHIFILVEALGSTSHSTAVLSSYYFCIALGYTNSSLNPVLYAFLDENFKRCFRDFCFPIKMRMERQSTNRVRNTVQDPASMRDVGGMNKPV

[8] = target: Tyrosine-protein kinase receptor TYRO3 (Homo sapiens) (UniProt Q06418); test: TYRO3 protein tyrosine kinase Millipore kinase panel; details: Compound concentration 10.0 uM
[9] = target: Dual 3',5'-cyclic-AMP and -GMP phosphodiesterase 11A (Homo sapiens, UniProt Q9HCR9); test: hPDE11A4 PDE scan
[10] = target: Fibroblast growth factor receptor 3 (Homo sapiens) (UniProt P22607); test: fibroblast growth factor receptor 3 Millipore kinase panel; details: Compound concentration 10.0 uM
[11] = target: Serine/threonine-protein kinase PLK3 (Homo sapiens) (UniProt Q9H4B4); test: polo-like kinase 3 Millipore kinase panel; details: Compound concentration 10.0 uM
[12] = target: Glutamate NMDA receptor (Rattus norvegicus) (UniProt P35439+Q00959+Q00960+Q00961+Q62645+Q8VHN2+Q9R1M7); test: rPCP Cerep panel; assay type: protein-complex assay; details: Compound concentration 10.0 uM
[13] = target: 5-hydroxytryptamine receptor 6 (Homo sapiens) (UniProt P50406); test: h5HT6 Cerep panel; details: Compound concentration 10.0 uM
[14] = target: cGMP-dependent protein kinase 2 (Homo sapiens) (UniProt Q13237); test: protein kinase, cGMP-dependent, type II Millipore kinase panel; details: Compound concentration 10.0 uM
[15] = species on record: Rattus norvegicus; test: rGlutamate (ionotropic) kanic acid Cerep panel; details: Compound concentration 10.0 uM
[16] = target: Serine/threonine-protein kinase ULK2 (Homo sapiens) (UniProt Q8IYT8); test: unc-51-like kinase 2 Millipore kinase panel; details: Compound concentration 10.0 uM
[17] = target: mTOR/FKBP12A/FKBP12B (Homo sapiens) (UniProt P62942+P68106+P42345); test: mechanistic target of rapamycin / FKBP12 Millipore kinase panel; assay type: protein-complex assay; details: Compound concentration 10.0 uM
[18] = target: Muscarinic acetylcholine receptor M5 (Homo sapiens) (UniProt P08912); test: hM5 Cerep panel; details: Compound concentration 10.0 uM
[19] = target: Tyrosine-protein kinase HCK (Homo sapiens) (UniProt P08631); test: hemopoietic cell kinase (activated) Millipore kinase panel; details: Compound concentration 10.0 uM
[20] = target: Serine/threonine-protein kinase Nek6 (Homo sapiens) (UniProt Q9HC98); test: NIMA -related kinase 6 Millipore kinase panel; details: Compound concentration 10.0 uM
[21] = target: Somatostatin receptor (Mus musculus) (UniProt P30935+O08858+P30875+P30873+P49660); test: mSST Cerep panel; assay type: protein assay; details: Compound concentration 10.0 uM
Chain of Somatostatin receptor (Mus musculus) (P30935 whole entry): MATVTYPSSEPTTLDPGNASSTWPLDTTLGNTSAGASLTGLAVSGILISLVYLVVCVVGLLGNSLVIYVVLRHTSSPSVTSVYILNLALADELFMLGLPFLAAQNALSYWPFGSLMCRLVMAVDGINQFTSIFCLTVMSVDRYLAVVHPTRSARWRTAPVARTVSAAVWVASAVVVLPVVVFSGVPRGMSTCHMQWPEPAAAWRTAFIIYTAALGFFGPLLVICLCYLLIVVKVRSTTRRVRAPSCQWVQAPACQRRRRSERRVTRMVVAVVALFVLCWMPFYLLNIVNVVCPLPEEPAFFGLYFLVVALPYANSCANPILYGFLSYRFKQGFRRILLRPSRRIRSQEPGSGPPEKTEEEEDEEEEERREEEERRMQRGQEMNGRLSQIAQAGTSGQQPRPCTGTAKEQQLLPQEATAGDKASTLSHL
Chain of Somatostatin receptor (Mus musculus) (O08858 whole entry): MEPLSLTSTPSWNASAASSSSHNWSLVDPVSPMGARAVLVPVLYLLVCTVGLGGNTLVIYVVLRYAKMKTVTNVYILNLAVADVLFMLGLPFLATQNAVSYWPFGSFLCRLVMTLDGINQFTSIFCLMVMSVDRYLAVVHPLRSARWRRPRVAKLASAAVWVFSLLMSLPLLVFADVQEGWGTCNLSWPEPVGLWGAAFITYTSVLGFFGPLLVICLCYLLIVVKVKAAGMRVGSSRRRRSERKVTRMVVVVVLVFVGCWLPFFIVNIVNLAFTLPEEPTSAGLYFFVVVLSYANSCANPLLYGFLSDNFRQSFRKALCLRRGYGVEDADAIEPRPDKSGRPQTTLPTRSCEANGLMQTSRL
Chain of Somatostatin receptor (Mus musculus) (P30875 whole entry): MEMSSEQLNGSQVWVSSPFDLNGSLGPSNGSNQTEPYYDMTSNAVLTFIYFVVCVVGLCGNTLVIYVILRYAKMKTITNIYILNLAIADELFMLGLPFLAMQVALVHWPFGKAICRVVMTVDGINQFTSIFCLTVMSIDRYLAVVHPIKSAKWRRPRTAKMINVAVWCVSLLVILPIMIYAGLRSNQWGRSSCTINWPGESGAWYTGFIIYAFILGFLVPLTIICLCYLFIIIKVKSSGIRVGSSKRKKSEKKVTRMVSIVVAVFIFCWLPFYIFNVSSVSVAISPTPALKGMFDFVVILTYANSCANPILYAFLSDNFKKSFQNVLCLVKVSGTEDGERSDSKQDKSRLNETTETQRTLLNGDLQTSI
Chain of Somatostatin receptor (Mus musculus) (P30873 whole entry): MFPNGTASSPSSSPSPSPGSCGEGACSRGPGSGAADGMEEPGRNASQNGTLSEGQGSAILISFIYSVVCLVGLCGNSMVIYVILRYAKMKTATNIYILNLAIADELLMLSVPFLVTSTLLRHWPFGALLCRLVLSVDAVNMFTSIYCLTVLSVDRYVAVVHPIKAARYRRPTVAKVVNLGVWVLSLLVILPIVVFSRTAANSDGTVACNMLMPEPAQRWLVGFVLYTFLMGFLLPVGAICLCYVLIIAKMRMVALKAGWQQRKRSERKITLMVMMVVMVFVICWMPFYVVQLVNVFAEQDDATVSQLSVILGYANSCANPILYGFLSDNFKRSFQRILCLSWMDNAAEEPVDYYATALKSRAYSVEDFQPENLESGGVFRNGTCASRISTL
Chain of Somatostatin receptor (Mus musculus) (P49660 with tags, fused parts or gaps): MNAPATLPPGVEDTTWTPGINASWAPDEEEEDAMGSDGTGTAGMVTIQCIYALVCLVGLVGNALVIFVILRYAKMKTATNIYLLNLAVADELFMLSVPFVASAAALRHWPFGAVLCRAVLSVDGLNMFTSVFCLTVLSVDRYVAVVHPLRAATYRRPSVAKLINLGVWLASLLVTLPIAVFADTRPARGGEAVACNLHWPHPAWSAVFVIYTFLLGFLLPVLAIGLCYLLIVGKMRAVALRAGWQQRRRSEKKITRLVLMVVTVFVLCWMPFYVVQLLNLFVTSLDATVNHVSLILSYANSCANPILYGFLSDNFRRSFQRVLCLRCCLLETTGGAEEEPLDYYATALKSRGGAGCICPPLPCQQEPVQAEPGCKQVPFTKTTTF

[22] = target: Serine/threonine-protein kinase 17A (Homo sapiens) (UniProt Q9UEE5); test: serine/threonine kinase 17a Millipore kinase panel; details: Compound concentration 10.0 uM
[23] = target: cGMP-dependent protein kinase 1 (Homo sapiens) (UniProt Q13976); test: protein kinase, cGMP-dependent, type I Millipore kinase panel; details: Compound concentration 10.0 uM
[24] = target: Serine/threonine-protein kinase Sgk2 (Homo sapiens) (UniProt Q9HBY8); test: serum/glucocorticoid regulated kinase 2 Millipore kinase panel; details: Compound concentration 10.0 uM
[25] = target: Mitogen-activated protein kinase 1 (Homo sapiens) (UniProt P28482); test: mitogen-activated protein kinase 1 Millipore kinase panel; details: Compound concentration 10.0 uM
Chain of Mitogen-activated protein kinase 1 (Homo sapiens) (P28482 whole entry): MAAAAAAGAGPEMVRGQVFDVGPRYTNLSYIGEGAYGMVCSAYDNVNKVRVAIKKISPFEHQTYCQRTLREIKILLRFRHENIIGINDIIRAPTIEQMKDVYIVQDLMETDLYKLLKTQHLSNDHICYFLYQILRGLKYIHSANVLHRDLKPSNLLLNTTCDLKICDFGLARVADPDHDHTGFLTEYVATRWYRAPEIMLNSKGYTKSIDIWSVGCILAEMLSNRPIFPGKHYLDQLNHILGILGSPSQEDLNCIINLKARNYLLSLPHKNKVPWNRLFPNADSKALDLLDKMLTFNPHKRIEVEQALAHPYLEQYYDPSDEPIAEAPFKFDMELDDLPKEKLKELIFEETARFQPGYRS

[26] = target: 5-hydroxytryptamine receptor 7 (Homo sapiens, UniProt P34969); test: GPCRScan assay: inhibition of 5-HT7A; set-up: radioligand conc. used [nm] 5.0 – 6.0, parental cells Stable HEK
[27] = target: Serine/threonine-protein kinase 4 (Homo sapiens) (UniProt Q13043); test: serine/threonine kinase 4 Millipore kinase panel; details: Compound concentration 10.0 uM
[28] = target: Hepatocyte growth factor receptor (Homo sapiens) (UniProt P08581); test: met proto-oncogene Millipore kinase panel; details: Compound concentration 10.0 uM
[29] = target: Myosin light chain kinase, smooth muscle (Homo sapiens) (UniProt Q15746); test: myosin light chain kinase Millipore kinase panel; details: Compound concentration 10.0 uM
[30] = target: C-X-C chemokine receptor type 2 (Homo sapiens) (UniProt P25025); test: hBCXCR2 Cerep panel; details: Compound concentration 10.0 uM
[31] = target: Dual specificity calcium/calmodulin-dependent 3',5'-cyclic nucleotide phosphodiesterase 1B (Homo sapiens, UniProt Q01064); test: hPDE1B1 PDE scan
[32] = target: Mast/stem cell growth factor receptor Kit (Homo sapiens) (UniProt P10721); test: v-kit Hardy-Zuckerman 4 feline sarcoma viral oncogene homolog Millipore kinase panel; details: Compound concentration 10.0 uM
Chain of Mast/stem cell growth factor receptor Kit (Homo sapiens) (P10721 whole entry): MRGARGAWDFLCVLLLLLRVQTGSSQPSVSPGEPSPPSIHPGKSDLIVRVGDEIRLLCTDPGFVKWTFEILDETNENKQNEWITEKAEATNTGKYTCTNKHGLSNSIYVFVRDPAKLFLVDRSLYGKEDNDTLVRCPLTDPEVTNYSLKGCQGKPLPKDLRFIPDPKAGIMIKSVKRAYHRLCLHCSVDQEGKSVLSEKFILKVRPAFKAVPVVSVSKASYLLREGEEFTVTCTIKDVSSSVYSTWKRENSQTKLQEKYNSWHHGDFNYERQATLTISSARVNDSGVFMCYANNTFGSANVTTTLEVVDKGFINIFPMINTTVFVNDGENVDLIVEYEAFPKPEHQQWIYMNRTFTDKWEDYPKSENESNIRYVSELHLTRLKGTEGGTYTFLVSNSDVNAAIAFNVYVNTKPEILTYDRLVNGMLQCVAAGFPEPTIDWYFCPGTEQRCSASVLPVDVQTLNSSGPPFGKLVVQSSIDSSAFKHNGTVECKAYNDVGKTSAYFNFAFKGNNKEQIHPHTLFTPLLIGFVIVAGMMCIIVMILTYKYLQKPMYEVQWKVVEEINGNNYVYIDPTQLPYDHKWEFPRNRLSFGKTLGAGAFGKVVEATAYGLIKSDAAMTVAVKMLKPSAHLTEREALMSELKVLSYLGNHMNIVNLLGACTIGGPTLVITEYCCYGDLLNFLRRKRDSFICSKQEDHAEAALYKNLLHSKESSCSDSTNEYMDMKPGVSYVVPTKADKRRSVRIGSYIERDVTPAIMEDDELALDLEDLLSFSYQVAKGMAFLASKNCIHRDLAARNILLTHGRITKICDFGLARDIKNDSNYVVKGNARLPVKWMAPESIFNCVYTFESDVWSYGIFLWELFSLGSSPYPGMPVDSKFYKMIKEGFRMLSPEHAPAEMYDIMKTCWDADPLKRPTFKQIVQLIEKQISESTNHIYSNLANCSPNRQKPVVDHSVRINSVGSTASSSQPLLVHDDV

[33] = target: Insulin receptor (Homo sapiens) (UniProt P06213); test: insulin receptor (activated) Millipore kinase panel; details: Compound concentration 10.0 uM
[34] = target: cAMP and cAMP-inhibited cGMP 3',5'-cyclic phosphodiesterase 10A (Mus musculus) (UniProt Q8CA95)
Chain of cAMP and cAMP-inhibited cGMP 3',5'-cyclic phosphodiesterase 10A (Mus musculus) (Q8CA95 whole entry): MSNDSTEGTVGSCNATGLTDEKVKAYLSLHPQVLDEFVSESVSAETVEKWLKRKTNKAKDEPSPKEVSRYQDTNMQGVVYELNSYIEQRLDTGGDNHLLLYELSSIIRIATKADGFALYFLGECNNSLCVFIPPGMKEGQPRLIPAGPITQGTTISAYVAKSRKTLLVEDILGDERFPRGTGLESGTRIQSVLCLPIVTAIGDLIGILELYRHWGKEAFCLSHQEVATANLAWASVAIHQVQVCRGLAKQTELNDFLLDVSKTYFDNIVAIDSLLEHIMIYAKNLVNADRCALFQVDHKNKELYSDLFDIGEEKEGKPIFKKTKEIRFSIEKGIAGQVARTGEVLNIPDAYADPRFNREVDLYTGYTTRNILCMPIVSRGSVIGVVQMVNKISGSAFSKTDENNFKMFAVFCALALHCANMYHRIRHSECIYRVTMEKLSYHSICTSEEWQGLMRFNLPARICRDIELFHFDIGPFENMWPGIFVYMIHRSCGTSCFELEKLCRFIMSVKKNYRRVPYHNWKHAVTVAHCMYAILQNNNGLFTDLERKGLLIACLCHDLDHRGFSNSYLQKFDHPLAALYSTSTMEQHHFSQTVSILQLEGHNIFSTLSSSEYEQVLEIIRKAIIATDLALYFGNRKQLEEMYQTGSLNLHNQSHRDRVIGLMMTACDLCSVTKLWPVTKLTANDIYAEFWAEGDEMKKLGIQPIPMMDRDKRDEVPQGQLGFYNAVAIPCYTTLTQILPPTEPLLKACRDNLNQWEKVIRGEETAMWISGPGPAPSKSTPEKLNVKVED

[35] = target: Delta-type opioid receptor (Homo sapiens) (UniProt P41143); test: hOP1 Cerep panel; details: Compound concentration 10.0 uM
[36] = target: Adenosine receptor A3 (Homo sapiens) (UniProt P0DMS8); test: hA3 Cerep panel; details: Compound concentration 10.0 uM
[37] = target: Adenosine receptor A2a (Homo sapiens) (UniProt P29274); test: hA2A Cerep panel; details: Compound concentration 10.0 uM
[38] = target: D(1A) dopamine receptor (Homo sapiens) (UniProt P21728); test: hD1 Cerep panel; details: Compound concentration 10.0 uM
[39] = target: Homeodomain-interacting protein kinase 1 (Homo sapiens) (UniProt Q86Z02); test: homeodomain interacting protein kinase 1 Millipore kinase panel; details: Compound concentration 10.0 uM
[40] = target: Testis-specific serine/threonine-protein kinase 2 (Homo sapiens) (UniProt Q96PF2); test: testis-specific serine kinase 2 Millipore kinase panel; details: Compound concentration 10.0 uM
[41] = target: Proto-oncogene tyrosine-protein kinase receptor Ret (Homo sapiens) (UniProt P07949); test: ret proto-oncogene Millipore kinase panel; details: Compound concentration 10.0 uM
[42] = species on record: Rattus norvegicus; test: rBZD Cerep panel; details: Compound concentration 10.0 uM
[43] = species on record: Rattus norvegicus; test: rCa channel Cerep panel; details: Compound concentration 10.0 uM
[44] = target: High affinity nerve growth factor receptor (Homo sapiens) (UniProt P04629); test: neurotrophic tyrosine kinase, receptor, type 1 Millipore kinase panel; details: Compound concentration 10.0 uM
[45] = target: cAMP and cAMP-inhibited cGMP 3',5'-cyclic phosphodiesterase 10A (Mus musculus) (UniProt Q8CA95); remark: listed apart in the source
[46] = target: Ephrin type-A receptor 1 (Homo sapiens) (UniProt P21709); test: EPH receptor A1 Millipore kinase panel; details: Compound concentration 10.0 uM
[47] = target: Ephrin type-A receptor 5 (Homo sapiens) (UniProt P54756); test: EPH receptor A5 Millipore kinase panel; details: Compound concentration 10.0 uM
[48] = target: CDK9/cyclin T1 (Homo sapiens) (UniProt O60563+P50750); test: cyclin-dependent kinase 9 / cyclinT1 Millipore kinase panel; assay type: protein-complex assay; details: Compound concentration 10.0 uM
[49] = target: Rho-associated protein kinase 2 (Homo sapiens) (UniProt O75116); test: Rho-associated, coiled-coil containing protein kinase 2 Millipore kinase panel; details: Compound concentration 10.0 uM
[50] = target: CDK6/cyclin D3 (Homo sapiens) (UniProt P30281+Q00534); test: cyclin-dependent kinase 6 / cyclinD3 Millipore kinase panel; assay type: protein-complex assay; details: Compound concentration 10.0 uM

Chain of D(2) dopamine receptor (Homo sapiens) (P14416 whole entry): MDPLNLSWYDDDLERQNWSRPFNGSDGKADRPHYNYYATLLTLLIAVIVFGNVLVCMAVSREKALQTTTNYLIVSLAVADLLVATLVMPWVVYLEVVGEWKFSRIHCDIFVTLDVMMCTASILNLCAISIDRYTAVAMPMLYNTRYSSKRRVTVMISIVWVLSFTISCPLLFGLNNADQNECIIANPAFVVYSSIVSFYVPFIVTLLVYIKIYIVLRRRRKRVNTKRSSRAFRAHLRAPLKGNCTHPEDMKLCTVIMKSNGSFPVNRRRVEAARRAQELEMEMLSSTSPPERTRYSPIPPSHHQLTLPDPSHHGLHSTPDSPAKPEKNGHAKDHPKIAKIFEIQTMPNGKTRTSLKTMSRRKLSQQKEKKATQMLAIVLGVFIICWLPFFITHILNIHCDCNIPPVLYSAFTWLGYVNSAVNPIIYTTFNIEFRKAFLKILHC

Work on `c1ccc(C2CCN(c3cnc4c(N5CCOCC5)nccn34)CC2)cc1` yielded an inhibition [1] of 1.22% and an inhibition [2] of 5.84%.

`COCCc1ccc(-c2c(C)nc3c(N4CCOCC4)ccnn23)cn1` [JNJ-42396302] gave an inhibition [3] of -5%, an effect [4] of 13.9% and an inhibition [5] of 11%. It also gave an inhibition [6] of 0%, an effect [7] of 1.7% and an inhibition [8] of 1%. For the same molecule, the Ki [9] was 46 µM, the inhibition [10] was -2% and the inhibition [11] was -2%. The effect [12] was -3.5%, the effect [13] was 4.9% and the inhibition [14] was 1%. For the same molecule, the effect [15] was -25.3%, the inhibition [16] was 6% and the inhibition [17] was 9%. It also gave an effect [18] of -0.55%, an inhibition [19] of -3% and an inhibition [20] of 1%. The effect [21] was 2.8%, the inhibition [22] was -9% and the inhibition [23] was 2%. For the same molecule, the inhibition [24] was -3%, the inhibition [25] was 1% and the Ki [26] was 8.74 µM. For the same molecule, the inhibition [27] was -7%, the inhibition [28] was -6% and the inhibition [29] was 2%. For the same molecule, the effect [30] was 5.15%, the Ki [31] was 3.4 µM and the inhibition [32] was 4%. It also gave an inhibition [33] of -2%, an Increase in cAMP [34] of 10 fold and an effect [35] of 8.95%. It also gave an effect [36] of 8.4%, an effect [37] of 17.8% and an effect [38] of 6.2%. The inhibition [39] was 11%, the inhibition [40] was 1% and the inhibition [41] was 5%. For the same molecule, the effect [42] was 41.5%, the effect [43] was 4.75% and the inhibition [44] was 7%. It also gave an Increase in cAMP [45] of 2.3 fold, an inhibition [46] of 7% and an inhibition [47] of -9%. For the same molecule, the inhibition [48] was -1%, the inhibition [49] was -3% and the inhibition [50] was 0%.
